Experimental data from patent US20220378923A1, “BET DEGRADER” (KYOWA KIRIN CO., LTD., priority 2019, published 2022).
Structures can show the parent of a compound that is named as a salt. Where two headings read alike, the source gives them in different places.

Tested on: SU-DHL-4 cells
Test: Inhibitory effect on cell viability in SU-DHL-4 cell line (Test Example 1)
Type: cell-based, human
Settings: SU-DHL-4 cells, 72 hours, Cell Counting Kit-8, concentration showing 90% inhibition of cell viability, read-out: SU-DHL-4 Cell Viability Inhibition Rate IC90
How it was run: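 SU-DHL-4 cells were grown at 37° C. under 5% CO2 in RPMI1640 with 10 vol % heat-inactivated FBS plus penicillin/streptomycin, seeded and precultured for 18 to 25 hours, then exposed to test compound at 0.1 vol % DMSO for 72 hours. Viability was read with Cell Counting Kit-8 by absorbance at 450 nm.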

SMILES | IC90 (Homo sapiens) [nM] | IC90 [nM]
CCC(=O)N1c2ccccc2[C@H](Nc2ccc(-c3nnc(CNC(=O)N4CCN(Cc5cc(O)cc(-c6c(C)noc6C)c5)CC4)o3)cc2)C[C@@H]1C [Compound 16c, 4-(3-(3,5-Dimethylisoxazol-4-yl)-5-hydroxybenzyl)-N-((5-(4-(((2S,4R)-2-methyl-1-propionyl-1,2,3,4-tetrahydroquinolin-4-yl)amino)phenyl)-1,3,4-oxadiazol-2-yl)methyl)piperazine-1-carboxamide] | 0.28 | –
CCC(=O)N1c2ccccc2[C@H](Nc2ccc(-n3cc(CNC(=O)C4CCN(Cc5cc(O)cc(-c6c(C)noc6C)c5)CC4)nn3)cc2)C[C@@H]1C [Compound 16d, 1-(3-(3,5-Dimethylisoxazol-4-yl)-5-hydroxybenzyl)-N-((1-(4-(((2S,4R)-2-methyl-1-propionyl-1,2,3,4-tetrahydroquinolin-4-yl)amino)phenyl)-1H-1,2,3-triazol-4-yl)methyl)piperidine-4-carboxamide] | 0.17 | –
CCC(=O)N1c2ccccc2[C@H](Nc2ccc(NC(=O)CCCC(=O)Nc3ccc(OCCN4CCN(C)C(=O)[C@H]4C)cc3)cc2)C[C@@H]1C [Compound 16e, N^1-(4-(2-((R)-2,4-Dimethyl-3-oxopiperazin-1-yl)ethoxy)phenyl)-N5-(4-(((2S,4R)-2-methyl-1-propionyl-1,2,3,4-tetrahydroquinolin-4-yl)amino)phenyl)glutaramide] | 5.97 | –
CCC(=O)N1c2ccccc2[C@H](Nc2ccc(NC(=O)CCCC(=O)NC3CCCN(Cc4ccc(NS(=O)(=O)CC)cc4-c4cn(C)c(=O)cc4OC)C3)cc2)C[C@@H]1C (stereo partly drawn) [Compound 16f, N^1-(1-(4-(Ethylsulfonamide)-2-(4-methoxy-1-methyl-6-oxo-1,6-dihydropyridin-3-yl)benzyl)piperidin-3-yl)-N5-(4-(((2S,4R)-2-methyl-1-propionyl-1,2,3,4-tetrahydroquinolin-4-yl)amino)phenyl)glutaramide] | – | 24.6
CCC(=O)N1c2ccccc2[C@H](Nc2ccc(NC(=O)CCCC(=O)NC3CC4(C3)CN(Cc3cc(O)cc(-c5c(C)noc5C)c3)C4)cc2)C[C@@H]1C [Compound 16g, N^1-(2-(3-(3,5-Dimethylisoxazol-4-yl)-5-hydroxybenzyl)-2-azaspiro[3.3]heptan-6-yl)-N5-(4-(((2S,4R)-2-methyl-1-propionyl-1,2,3,4-tetrahydroquinolin-4-yl)amino)phenyl)glutaramide] | 14.9 | –
CCC(=O)N1c2ccccc2[C@H](Nc2ccc(NC(=O)CCCC(=O)NC3CCN(Cc4ccccc4-c4cn(C)c(=O)cc4OC)CC3)cc2)C[C@@H]1C [Compound 16h, N^1-(1-(2-(4-Methoxy-1-methyl-6-oxo-1,6-dihydropyridin-3-yl)benzyl)piperidin-4-yl)-N5-(4-(((2S,4R)-2-methyl-1-propionyl-1,2,3,4-tetrahydroquinolin-4-yl)amino)phenyl)glutaramide] | 68.4 | –
CCC(=O)N1c2ccccc2[C@H](Nc2ccc(NC(=O)CCCC(=O)NC34CC(NCc5cc(O)cc(-c6c(C)noc6C)c5)(C3)C4)cc2)C[C@@H]1C [Compound 16i, N^1-(3-((3-(3,5-Dimethylisoxazol-4-yl)-5-hydroxybenzyl)amino)bicyclo[1.1.1]pentan-1-yl)-N5-(4-(((2S,4R)-2-methyl-1-propionyl-1,2,3,4-tetrahydroquinolin-4-yl)amino)phenyl)glutaramide] | 7.84 | –
CCC(=O)N1c2ccccc2[C@H](Nc2ccc(NC(=O)CCCC(=O)Nc3ccc(Oc4ccccc4-c4cn(C)c(=O)cc4OC)cc3)cc2)C[C@@H]1C [Compound 16k, N^1-(4-(2-(4-Methoxy-1-methyl-6-oxo-1,6-dihydropyridin-3-yl)phenoxy)phenyl)-N5-(4-(((2S,4R)-2-methyl-1-propionyl-1,2,3,4-tetrahydroquinolin-4-yl)amino)phenyl)glutaramide] | 0.9 | –
CCC(=O)N1c2ccccc2[C@H](Nc2ccc(NC(=O)CCCC(=O)NC3CCC(Oc4ccc(NS(=O)(=O)CC)cc4-c4cn(C)c(=O)cc4OC)CC3)cc2)C[C@@H]1C (stereo partly drawn) [Compound 16l, N^1-((1r,4r)-4-(4-(Ethylsulfonamide)-2-(4-methoxy-1-methyl-6-oxo-1,6-dihydropyridin-3-yl)phenoxy)cyclohexyl)-N5-(4-(((2S,4R)-2-methyl-1-propionyl-1,2,3,4-tetrahydroquinolin-4-yl)amino)phenyl)glutaramide] | – | 89.8
CCC(=O)N1c2ccccc2[C@H](Nc2ccc(-n3cc(CNC(=O)c4cccc(Oc5ccc(NS(=O)(=O)CC)cc5-c5cn(C)c(=O)cc5OC)c4)nn3)cc2)C[C@@H]1C [Compound 16n, 3-(4-(Ethylsulfonamide)-2-(4-methoxy-1-methyl-6-oxo-1,6-dihydropyridin-3-yl)phenoxy)-N-((1-(4-(((2S,4R)-2-methyl-1-propionyl-1,2,3,4-tetrahydroquinolin-4-yl)amino)phenyl)-1H-1,2,3-triazol-4-yl)methyl)benzamide] | – | 0.48
CCC(=O)N1c2ccccc2[C@H](Nc2ccc(NC(=O)CCCC(=O)NC3CCC(Cn4c(CC)cc5c4CCCC5=O)CC3)cc2)C[C@@H]1C (stereo partly drawn) [Compound 17b, N^1-((1r,4r)-4-((2-Ethyl-4-oxo-4,5,6,7-tetrahydro-1H-indol-1-yl)methyl)cyclohexyl)-N5-(4-(((2S,4R)-2-methyl-1-propionyl-1,2,3,4-tetrahydroquinolin-4-yl)amino)phenyl)glutaramide] | – | 1.74
CCC(=O)N1c2ccccc2[C@H](Nc2ccc(NC(=O)CCCC(=O)NC34CCC(NCc5cc(O)cc(-c6c(C)noc6C)c5)(CC3)CC4)cc2)C[C@@H]1C [Compound 17c, N^1-(4-((3-(3,5-Dimethylisoxazol-4-yl)-5-hydroxybenzyl)amino)bicyclo[2.2.2]octan-1-yl)-N5-(4-(((2S,4R)-2-methyl-1-propionyl-1,2,3,4-tetrahydroquinolin-4-yl)amino)phenyl)glutaramide] | 2.05 | –
CCC(=O)N1c2ccccc2[C@H](Nc2ccc(-n3cc(CNC(=O)c4cccc(Oc5ccccc5-c5cn(C)c(=O)cc5OC)c4)nn3)cc2)C[C@@H]1C [Compound 17d, 3-(2-(4-Methoxy-1-methyl-6-oxo-1,6-dihydropyridin-3-yl)phenoxy)-N-((1-(4-(((2S,4R)-2-methyl-1-propionyl-1,2,3,4-tetrahydroquinolin-4-yl)amino)phenyl)-1H-1,2,3-triazol-4-yl)methyl)benzamide] | 0.13 | –

More lines, now with the values ahead:

IC90 (Homo sapiens) [nM] | IC90 [nM] | SMILES
1.82 | – | CCC(=O)N1c2ccccc2[C@H](Nc2ccc(CNCc3cn(-c4ccc(N[C@@H]5C[C@H](C)N(C(=O)CC)c6ccccc65)nc4)nn3)cc2)C[C@@H]1C [Compound 17e, 1-((2S,4R)-2-Methyl-4-((4-((((1-(6-(((2S,4R)-2-methyl-1-propionyl-1,2,3,4-tetrahydroquinolin-4-yl)amino)pyridin-3-yl)-1H-1,2,3-triazol-4-yl)methyl)amino)methyl)phenyl)amino)-3,4-dihydroquinolin-1(2H)-yl)propan-1-one]
1.45 | – | CCC(=O)N1c2ccccc2[C@H](Nc2ccc(-c3cnn(CCNC(=O)C4CCN(Cc5cc(O)cc(-c6c(C)noc6C)c5)CC4)c3)cc2)C[C@@H]1C [Compound 17i, 1-(3-(3,5-Dimethylisoxazol-4-yl)-5-hydroxybenzyl)-N-(2-(4-(4-(((2S,4R)-2-methyl-1-propionyl-1,2,3,4-tetrahydroquinolin-4-yl)amino)phenyl)-1H-pyrazol-1-yl)ethyl)piperidine-4-carboxamide]
29 | – | CCC(=O)N1c2ccccc2[C@H](Nc2ccc(NC(=O)NCC(=O)NC3CCN(Cc4cc(O)cc(-c5c(C)noc5C)c4)CC3)cc2)C[C@@H]1C [Compound 17j, N-(1-(3-(3,5-Dimethylisoxazol-4-yl)-5-hydroxybenzyl)piperidin-4-yl)-2-(3-(4-(((2S,4R)-2-methyl-1-propionyl-1,2,3,4-tetrahydroquinolin-4-yl)amino)phenyl)ureido)acetamide]
43.7 | – | CCC(=O)N1c2ccccc2[C@H](Nc2ccc(NC(=O)CNC(=O)NC3CCN(Cc4cc(O)cc(-c5c(C)noc5C)c4)CC3)cc2)C[C@@H]1C [Compound 17k, 2-(3-(1-(3-(3,5-Dimethylisoxazol-4-yl)-5-hydroxybenzyl)piperidin-4-yl)ureido)-N-(4-(((2S,4R)-2-methyl-1-propionyl-1,2,3,4-tetrahydroquinolin-4-yl)amino)phenyl)acetamide]
1.89 | – | CCC(=O)N1c2ccccc2[C@H](Nc2ccc(-n3cc(CCNC(=O)C4CCN(Cc5cc(O)cc(-c6c(C)noc6C)c5)CC4)nn3)cc2)C[C@@H]1C [Compound 17l, 1-(3-(3,5-Dimethylisoxazol-4-yl)-5-hydroxybenzyl)-N-(2-(1-(4-(((2S,4R)-2-methyl-1-propionyl-1,2,3,4-tetrahydroquinolin-4-yl)amino)phenyl)-1H-1,2,3-triazol-4-yl)ethyl)piperidine-4-carboxamide formate]
74.1 | – | CCC(=O)N1c2ccccc2[C@H](Nc2ccc(C(=O)NCc3nnc(C4CCN(Cc5cc(O)cc(-c6c(C)noc6C)c5)CC4)o3)cc2)C[C@@H]1C [Compound 17m, N-((5-(1-(3-(3,5-Dimethylisoxazol-4-yl)-5-hydroxybenzyl)piperidin-4-yl)-1,3,4-oxadiazol-2-yl)methyl)-4-(((2S,4R)-2-methyl-1-propionyl-1,2,3,4-tetrahydroquinolin-4-yl)amino)benzamide]
0.35 | – | CCC(=O)N1c2ccccc2[C@H](Nc2ccc(NC(=O)C3CN(C(=O)c4ccc(C5CCN(c6ccc7nnc(Cl)n7n6)CC5)cc4)C3)cc2)C[C@@H]1C [Compound 17p, 1-(4-(1-(3-Chloro-[1,2,4]triazolo[4,3-b]pyridazin-6-yl)piperidin-4-yl)benzoyl)-N-(4-(((2S,4R)-2-methyl-1-propionyl-1,2,3,4-tetrahydroquinolin-4-yl)amino)phenyl)azetidine-3-carboxamide]
